# From patent US8378104B2 (OSI Pharmaceuticals, LLC, priority 2010, dated 2013)
# Where a name gives a salt, the structure may show the parent alone.
# Molecular target: T1, TAK1-TAB1 fusion protein (Homo sapiens, UniProt O43318)
# T1 construct: purchased Carna
# T1 sequence (O43318 with tags, fused parts or gaps limits assumed): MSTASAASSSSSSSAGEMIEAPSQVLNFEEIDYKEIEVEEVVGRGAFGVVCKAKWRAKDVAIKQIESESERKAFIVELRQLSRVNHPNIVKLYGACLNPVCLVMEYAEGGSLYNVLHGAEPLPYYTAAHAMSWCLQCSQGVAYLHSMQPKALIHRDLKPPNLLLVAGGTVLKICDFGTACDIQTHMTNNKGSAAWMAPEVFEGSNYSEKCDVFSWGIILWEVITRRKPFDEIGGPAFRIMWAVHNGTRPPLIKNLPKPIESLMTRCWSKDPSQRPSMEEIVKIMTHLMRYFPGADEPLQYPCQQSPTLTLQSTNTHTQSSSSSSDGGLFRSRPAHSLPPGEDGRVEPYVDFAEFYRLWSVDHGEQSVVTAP
# Experiment: TAK1 biochemical assay (AlphaScreen, GST-MAP2K7 substrate)
# Settings: not given
row,IC50,SMILES
1,100 to 1000 nM,"COc1nn(C)cc1-c1cnc(N)c2oc(-c3csc4cnccc34)cc12 [Example 343, 4-(3-methoxy-1-methyl-1H-pyrazol-4-yl)-2-thieno[2,3-c]pyridin-3-yl-furo[2,3-c]pyridin-7-ylamine]"
2,> 10000 nM,"Cc1nn(C)c(C)c1-c1cnc(N)c2oc(-c3csc4cnccc34)cc12 [Example 294, 2-thieno[2,3-c]pyridin-3-yl-4-(1,3,5-trimethyl-1H-pyrazol-4-yl)-furo[2,3-c]pyridin-7-ylamine]"

# Same assay, conditions: TAK1-TAB1 fusion protein, GST-MAP2K7 substrate; read-out: mean TAK1 IC50 (Col. A)
row,SMILES,IC50
1,"CC(=O)N1CCC(n2cc(-c3cnc(N)c4oc(-c5ccc6c(c5)OCCO6)cc34)cn2)CC1 [Example 157, 1-(4-{4-[7-amino-2-(2,3-dihydro-1,4-benzodioxin-6-yl)furo[2,3-c]pyridin-4-yl]-1H-pyrazol-1-yl}piperidin-1-yl)ethanone]",100 to 1000 nM
2,"CCOC(=O)Cn1cc(-c2cnc(N)c3oc(-c4cccc5cnccc45)cc23)cn1 [Example 59, ethyl {4-[7-amino-2-(isoquinolin-5-yl)furo[2,3-c]pyridin-4-yl]-1H-pyrazol-1-yl}acetate]",1000 to 10000 nM
3,"COCCOc1cccc(-c2cc3c(-c4cnn(C5CCN(C(C)=O)CC5)c4)cnc(N)c3o2)c1 [Example 200, 1-[4-(4-{7-amino-2-[3-(2-methoxyethoxy)phenyl]furo[2,3-c]pyridin-4-yl}-1H-pyrazol-1-yl)piperidin-1-yl]ethanone]",1000 to 10000 nM
4,"Nc1ncc(-c2cnn(C3CCNCC3)c2)c2cc(-c3ccc4[nH]cnc4c3)oc12 [Example 39, 2-(1H-benzimidazol-5-yl)-4-[1-(piperidin-4-yl)-1H-pyrazol-4-yl]furo[2,3-c]pyridine-7-amine]",100 to 1000 nM
5,"COCc1ccccc1-c1cc2c(-c3cnn(C4CCN(C(C)=O)CC4)c3)cnc(N)c2o1 [Example 195, 1-[4-(4-{7-amino-2-[2-(methoxymethyl)phenyl]furo[2,3-c]pyridin-4-yl}-1H-pyrazol-1-yl)piperidin-1-yl]ethanone]",1000 to 10000 nM
6,"CC(=O)N1CCC(n2cc(-c3cnc(N)c4oc(-c5ccc6cc[nH]c6c5)cc34)cn2)CC1 [Example 167, 1-(4-{4-[7-amino-2-(1H-indol-6-yl)furo[2,3-c]pyridin-4-yl}-1H-pyrazol-1-yl}piperidin-1-yl)ethanone]",1000 to 10000 nM
7,"Nc1ncc(-c2cnn(C3CNC3)c2)c2cc(-c3cccc4cnccc34)oc12 [Example 64, 4-[1-(azetidin-3-yl)-1H-pyrazol-4-yl]-2-(isoquinolin-5-yl)furo[2,3-c]pyridin-7-amine]",100 to 1000 nM
8,"CC(=O)N1CCC(n2cc(-c3cnc(N)c4oc(-c5ccc(-c6ccn[nH]6)cc5)cc34)cn2)CC1 [Example 128, 1-[4-(4-{7-amino-2-[4-(1H-pyrazol-5-yl)phenyl]furo[2,3-c]pyridin-4-yl}-1H-pyrazol-1-yl)piperidin-1-yl]ethanone]",1000 to 10000 nM
9,"CC(=O)c1ccccc1-c1cc2c(-c3cnn(C4CCN(C(C)=O)CC4)c3)cnc(N)c2o1 [Example 193, 1-(4-{4-[2-(2-acetylphenyl)-7-aminofuro[2,3-c]pyridin-4-yl]-1H-pyrazol-1-yl}piperidin-1-yl)ethanone]",1000 to 10000 nM
10,"Nc1ncc(-c2cnn(C3CCNCC3)c2)c2cc(-c3cccc4c3sc3ccccc34)oc12 [Example 37, 2-(dibenzo[b,d]thiophen-4-yl)-4-[1-(piperidin-4-yl)-1H-pyrazol-4-yl]furo[2,3-c]pyridine-7-amine]",100 to 1000 nM
11,"CC(=O)N1CCC(n2cc(-c3cnc(N)c4oc(-c5cccc(OCc6cccnc6)c5)cc34)cn2)CC1 [Example 202, 1-[4-(4-{7-amino-2-[3-(pyridin-3-ylmethoxy)phenyl]furo[2,3-c]pyridin-4-yl}-1H-pyrazol-1-yl)piperidin-1-yl]ethanone]",1000 to 10000 nM
12,"CC(=O)N1CCC(n2cc(-c3cnc(N)c4oc(-c5ccc(N6CCCC6)nc5)cc34)cn2)CC1 [Example 139, 1-[4-(4-{7-amino-2-[6-(pyrrolidin-1-yl)pyridin-3-yl]furo[2,3-c]pyridin-4-yl}-1H-pyrazol-1-yl)piperidin-1-yl]ethanone]",> 10000 nM
13,"CC(=O)N1CCC(n2cc(-c3cnc(N)c4oc(-c5cccc(CN)c5)cc34)cn2)CC1 [Example 178, 1-[4-(4-{7-amino-2-[3-(aminomethyl)phenyl]furo[2,3-c]pyridin-4-yl}-1H-pyrazol-1-yl)piperidin-1-yl]ethanone]",100 to 1000 nM
14,"CC(=O)N1CCC(n2cc(-c3cnc(N)c4oc(-c5ccc(N6CCCCC6)nc5)cc34)cn2)CC1 [Example 118, 1-[4-(4-{7-amino-2-[6-(piperidin-1-yl)pyridin-3-yl]furo[2,3-c]pyridin-4-yl}-1H-pyrazol-1-yl)piperidin-1-yl]ethanone]",> 10000 nM
15,"Nc1ccc(-c2nc(-c3cc4c(-c5cnn(C6CCNCC6)c5)cnc(N)c4o3)ccc2N)nc1Cl [Example 30, 6-{7-amino-4-[1-(piperidin-4-yl)-1H-pyrazol-4-yl]furo[2,3-c]pyridine-2-yl}-6′-chloro-2,2′-bipyridine-3,5′-diamine]",100 to 1000 nM

# Now from value to compound:
row,IC50,SMILES
1,1000 to 10000 nM,"Nc1ncc(-c2cnn(C3CCNCC3)c2)c2c(Cl)c(-c3ccc4[nH]ncc4c3)oc12 [Example 399, 3-chloro-2-(1H-indazol-5-yl)-4-[1-(piperidin-4-yl)-1H-pyrazol-4-yl]furo[2,3-c]pyridin-7-amine hydrochloride]"
2,100 to 1000 nM,"CC(=O)N1CCC(n2cc(-c3cnc(N)c4oc(-c5c(F)ccc6ncsc56)cc34)cn2)CC1 [Example 358, 1-(4-{4-[7-amino-2-(6-fluoro-1,3-benzothiazol-7-yl)furo[2,3-c]pyridin-4-yl]-1H-pyrazol-1-yl}piperidin-1-yl)ethanone bis(trifluoroacetate)]"
3,> 10000 nM,"N#Cc1ccsc1-c1cnc(N)c2oc(-c3csc4cnccc34)cc12 [Example 383, 2-(7-amino-2-thieno[2,3-c]pyridin-3-yl-furo[2,3-c]pyridin-4-yl)-thiophene-3-carbonitrile]"
4,100 to 1000 nM,"CCOc1cc2c(-c3cc4c(-c5cnn(C6CCN(C(C)=O)CC6)c5)cnc(N)c4o3)csc2cn1 [Example 245, 1-(4-{4-[7-amino-2-(5-ethoxythieno[2,3-c]pyridin-3-yl)furo[2,3-c]pyridin-4-yl]-1H-pyrazol-1-yl}piperidin-1-yl)ethanone bis(trifluoroacetate)]"
5,1000 to 10000 nM,"CC(=O)N1CCC(n2cc(-c3cnc(N)c4oc(-c5csc6c(=O)[nH]ccc56)cc34)cn2)CC1 [Example 257, 3-{4-[1-(1-acetylpiperidin-4-yl)-1H-pyrazol-4-yl]-7-aminofuro[2,3-c]pyridin-2-yl}thieno[2,3-c]pyridin-7(6H)-one trifluoroacetic Acid Salt]"
6,1000 to 10000 nM,"Nc1ncc(-c2cnn([C@H]3CC[C@H](O)CC3)c2)c2cc(-c3cccc4ncccc34)oc12 [Example 235, trans-4-{4-[7-amino-2-(quinolin-5-yl)furo[2,3-c]pyridin-4-yl]-1H-pyrazol-1-yl}cyclohexanol]"
7,1000 to 10000 nM,"Nc1ncc(-c2cnn(C3CCN(C(=O)CCC4CCCCC4)CC3)c2)c2cc(-c3csc4cnccc34)oc12 [Example 334, 1-{4-[4-(7-amino-2-thieno[2,3-c]pyridin-3-yl-furo[2,3-c]pyridin-4-yl)-pyrazol-1-yl]-piperidin-1-yl}-3-cyclohexyl-propan-1-one]"
8,> 10000 nM,"COC(=O)c1ccc(-c2cnc(N)c3oc(-c4csc5cnccc45)cc23)s1 [Example 382, 5-(7-amino-2-thieno[2,3-c]pyridin-3-yl-furo[2,3-c]pyridin-4-yl)-thiophene-2-carboxylic acid methyl ester]"
